Measurements: patent US11318137B2, “Quinazoline compounds as modulators of Ras signaling” (VANDERBILT UNIVERSITY, priority 2017, dated 2022)

Key:
[1] = biological target: T1, SOS-mediated nucleotide exchange on Ras (Homo sapiens, UniProt Q07889); experiment: SOS-mediated nucleotide exchange on Ras (BODIPY-GDP fluorescence); assay type: biochemical; settings: Ras loaded with BODIPY-GDP, GTP and SOS added; EC50 from derived exchange rates
T1 sequence (Q07889 1-1333): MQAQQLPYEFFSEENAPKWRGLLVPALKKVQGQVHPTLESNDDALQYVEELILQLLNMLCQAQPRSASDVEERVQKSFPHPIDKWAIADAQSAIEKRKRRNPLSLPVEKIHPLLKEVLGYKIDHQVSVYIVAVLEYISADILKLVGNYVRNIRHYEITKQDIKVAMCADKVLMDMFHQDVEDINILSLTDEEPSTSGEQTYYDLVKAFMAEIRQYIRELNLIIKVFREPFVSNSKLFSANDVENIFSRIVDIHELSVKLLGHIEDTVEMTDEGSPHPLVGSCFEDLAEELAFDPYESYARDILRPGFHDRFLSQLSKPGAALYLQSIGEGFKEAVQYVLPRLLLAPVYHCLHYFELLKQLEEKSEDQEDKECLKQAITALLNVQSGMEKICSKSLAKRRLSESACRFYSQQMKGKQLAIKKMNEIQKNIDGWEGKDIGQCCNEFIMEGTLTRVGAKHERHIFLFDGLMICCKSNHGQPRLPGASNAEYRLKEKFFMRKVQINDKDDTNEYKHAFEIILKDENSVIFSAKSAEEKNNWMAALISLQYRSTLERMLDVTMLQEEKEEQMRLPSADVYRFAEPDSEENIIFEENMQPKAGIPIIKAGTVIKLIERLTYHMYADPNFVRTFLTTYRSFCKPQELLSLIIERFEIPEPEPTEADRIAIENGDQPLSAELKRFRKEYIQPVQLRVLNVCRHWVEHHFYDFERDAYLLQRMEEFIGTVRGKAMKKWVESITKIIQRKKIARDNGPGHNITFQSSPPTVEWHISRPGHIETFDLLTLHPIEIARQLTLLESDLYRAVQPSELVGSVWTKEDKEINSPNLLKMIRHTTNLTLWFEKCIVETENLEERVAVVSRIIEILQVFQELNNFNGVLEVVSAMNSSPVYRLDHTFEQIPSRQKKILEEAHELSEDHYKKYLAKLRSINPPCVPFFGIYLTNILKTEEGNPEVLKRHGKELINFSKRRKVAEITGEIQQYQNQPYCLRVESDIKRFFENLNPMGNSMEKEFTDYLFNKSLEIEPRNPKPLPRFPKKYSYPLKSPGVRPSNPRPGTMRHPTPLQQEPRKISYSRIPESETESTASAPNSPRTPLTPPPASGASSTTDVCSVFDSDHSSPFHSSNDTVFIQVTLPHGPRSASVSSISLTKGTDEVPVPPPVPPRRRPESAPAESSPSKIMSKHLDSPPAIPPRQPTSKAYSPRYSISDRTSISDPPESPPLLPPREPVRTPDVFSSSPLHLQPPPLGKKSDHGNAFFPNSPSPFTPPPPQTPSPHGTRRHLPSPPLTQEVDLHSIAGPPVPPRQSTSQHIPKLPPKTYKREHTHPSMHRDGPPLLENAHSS
Protocol: A. SOS-Mediated Nucleotide Exchange on Ras
Compounds of the present invention were tested for their ability to modify the rate at which Ras exchanges a labeled nucleotide guanosine diphosphate (GDP) analog for guanosine triphosphate (GTP). Briefly, test compounds, then GTP and the Ras GEF SOS (Son of Sevenless) are added to a buffered solution containing Ras protein loaded with BODIPY-GDP. Changes in fluorescence indicating exchange of the labeled GDP for GTP are monitored over time. Raw fluorescence data was fit to a single exponential decay function and derived rates were plotted as mean values. EC50 values were calculated by plotting mean derived rates as a function of compound concentration and fit using a four-parameter dose-response curve. Full assay details are disclosed in: Burns, M. C.; Sun, Q.; Daniels, R. N.; Camper, D. V.; Kennedy, J. P.; Phan, J.; Olejniczak, E. O.; Lee, T.; Waterson, A. G.; Rossanese, O. W.; Fesik, S. W. “Approach for targeting Ras with small molecules that activate SOS-mediated nucleotide exchange” Proc. Natl. Acad. Sci. 2014; 11(9): 3401-3406. PMCID: PMC3948241.

Son of Sevenless (SOS) = biological target: T2, Son of Sevenless (SOS) (Homo sapiens, UniProt Q07889); experiment: Binding to SOS, fluorescence polarization anisotropy (FPA) displacement of FITC-conjugated probe; settings: binding affinity calculated from IC50 of FITC-probe displacement, read-out: Binding affinities (binding affinity to SOS)
T2 sequence (Q07889 564-1049 limits assumed): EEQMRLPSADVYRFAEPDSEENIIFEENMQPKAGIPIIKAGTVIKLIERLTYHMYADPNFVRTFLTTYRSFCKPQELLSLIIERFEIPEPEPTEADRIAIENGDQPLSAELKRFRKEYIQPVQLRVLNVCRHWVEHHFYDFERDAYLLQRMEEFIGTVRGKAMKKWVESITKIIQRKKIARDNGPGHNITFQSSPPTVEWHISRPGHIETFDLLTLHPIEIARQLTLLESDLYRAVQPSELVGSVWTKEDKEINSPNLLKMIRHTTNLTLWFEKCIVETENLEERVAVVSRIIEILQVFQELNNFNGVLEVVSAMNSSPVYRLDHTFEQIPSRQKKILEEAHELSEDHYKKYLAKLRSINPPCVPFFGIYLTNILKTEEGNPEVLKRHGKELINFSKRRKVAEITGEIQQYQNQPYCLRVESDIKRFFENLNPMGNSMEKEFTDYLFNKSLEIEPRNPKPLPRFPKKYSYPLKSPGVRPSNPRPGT
Protocol: Compounds of the present invention were tested for their ability to the Ras guanine exchange factor (GEF) Son of Sevenless (SOS). Binding to SOS was measured using a Fluorescence polarization anisotropy (FPA) assay that assesses the ability of a test compound to displace a fluorescent FITC-conjugated compound. Briefly, the labeled probe compound is incubated with SOS in buffer. Changes in anisotropy indicative of displacement of the labeled probe for a test compound are assessed over a dose range of test compound. Data was analyzed by plotting fluorescence anisotropy values as a function of compound concentration. IC50 values were determined using a four-parameter dose-response (variable slope) and binding affinities were calculated from this IC50 value. This assay is performed in a method analogous to the assay disclosed in: Burns, M. C.; Sun, Q.; Daniels, R. N.; Camper, D. V.; Kennedy, J. P.; Phan, J.; Olejniczak, E. O.; Lee, T.; Waterson, A. G.; Rossanese, O. W.; Fesik, S. W. “Approach for targeting Ras with small molecules that activate SOS-mediated nucleotide exchange” Proc. Natl. Acad. Sci. 2014; 11(9): 3401-3406. PMCID: PMC3948241.

SMILES: C[C@@H](Nc1nc(NCC2CCCCC2)nc2c(C3=CCNCC3)cccc12)c1cccs1 [Example 90, (R)—N^2-(cyclohexylmethyl)-8-(1,2,3,6-tetrahydropyridin-4-yl)-N^4-(1-(thiophen-2-yl)ethyl)quinazoline-2,4-diamine]
- EC50 [1]: 1 to 5 µM
- Ki (Son of Sevenless (SOS)): 1 to 5 µM

SMILES: C[C@@H](Nc1nc(NCc2cccc(Cl)c2F)nc2c(CCN)cccc12)C(C)(C)C [Example 85, (R)-8-(2-aminoethyl)-N^2-(3-chloro-2-fluorobenzyl)-N^4-(3,3-dimethylbutan-2-yl)quinazoline-2,4-diamine]
- EC50 [1]: 5 to 30 µM
- Ki (Son of Sevenless (SOS)): 1 to 5 µM

SMILES: C[C@@H](Nc1nc(Nc2ccc(F)c(Cl)c2)nc2c(N3CCNCC3)cccc12)C1CC1 [Example 52, (R)—N^2-(3-chloro-4-fluorophenyl)-N^4-(1-cyclopropylethyl)-8-(piperazin-1-yl)quinazoline-2,4-diamine]
- EC50 [1]: 1 to 5 µM
- Ki (Son of Sevenless (SOS)): 1 to 5 µM

SMILES: C[C@@H](Nc1nc(Nc2ccc(F)c(Cl)c2)nc2c(C3=CCN(C)CC3)cccc12)C1CC1 [Example 120, (R)—N^2-(3-chloro-4-fluorophenyl)-N^4-(1-cyclopropylethyl)-8-(1-methyl-1,2,3,6-tetrahydropyridin-4-yl)quinazoline-2,4-diamine]
- EC50 [1]: 5 to 30 µM
- Ki (Son of Sevenless (SOS)): 1 to 5 µM

SMILES: C[C@@H](Nc1nc(NCc2cccc(Cl)c2F)nc2c(CN)cccc12)c1cccs1 [Example 97, (R)-8-(aminomethyl)-N^2-(3-chloro-2-fluorobenzyl)-N^4-(1-(thiophen-2-yl)ethyl)quinazoline-2,4-diamine]
- EC50 [1]: 5 to 30 µM
- Ki (Son of Sevenless (SOS)): > 5 µM

SMILES: Cc1cc(F)cc(Nc2nc(N[C@H](C)C(C)(C)C)c3cccc(CN)c3n2)c1 [Example 131, (R)-8-(aminomethyl)-N^4-(3,3-dimethylbutan-2-yl)-N^2-(3-fluoro-5-methylphenyl)quinazoline-2,4-diamine]
- EC50 [1]: 5 to 30 µM
- Ki (Son of Sevenless (SOS)): > 5 µM

SMILES: Cc1cc(F)cc(Nc2nc(N[C@H](C)c3cccs3)c3cccc(CN)c3n2)c1 [Example 95, (R)-8-(aminomethyl)-N^2-(3-fluoro-5-methylphenyl)-N^4-(1-(thiophen-2-yl)ethyl)quinazoline-2,4-diamine]
- EC50 [1]: 5 to 30 µM
- Ki (Son of Sevenless (SOS)): > 5 µM

SMILES: C[C@@H](Nc1nc(Nc2ccc(F)c(Cl)c2)nc2c(NCCO)cccc12)C1CC1 [Example 54, (R)-2-((2-((3-chloro-4-fluorophenyl)amino)-4-((1-cyclopropylethyl)amino)quinazolin-8-yl)amino)ethan-1-ol]
- EC50 [1]: > 30 µM
- Ki (Son of Sevenless (SOS)): > 5 µM

SMILES: CC[C@@H](Nc1nc(NCC2CCCCC2)nc2c(CCN)cccc12)C1CC1 [Example 127, (R)-8-(2-aminoethyl)-N^2-(cyclohexylmethyl)-N^4-(1-cyclopropylpropyl)quinazoline-2,4-diamine]
- EC50 [1]: 1 to 5 µM
- Ki (Son of Sevenless (SOS)): < 1 µM

SMILES: C[C@@H](Nc1nc(Nc2ccc(F)c(Cl)c2)nc2c(CN)cccc12)C(C)(C)C [Example 130, (R)-8-(aminomethyl)-N^2-(3-chloro-4-fluorophenyl)-N^4-(3,3-dimethylbutan-2-yl)quinazoline-2,4-diamine]
- EC50 [1]: 5 to 30 µM
- Ki (Son of Sevenless (SOS)): > 5 µM

SMILES: C[C@@H](Nc1nc(NCC2CCCCC2)nc2c(CCN)cccc12)C(C)(C)C [Example 84, (R)-8-(2-aminoethyl)-N^2-(cyclohexylmethyl)-N^4-(3,3-dimethylbutan-2-yl)quinazoline-2,4-diamine]
- EC50 [1]: 5 to 30 µM
- Ki (Son of Sevenless (SOS)): 1 to 5 µM

SMILES: C[C@@H](Nc1nc(NCC2CCCCC2)nc2c(CN)cccc12)C(C)(C)C [Example 86, (R)-8-(aminomethyl)-N^2-(cyclohexylmethyl)-N^4-(3,3-dimethylbutan-2-yl)quinazoline-2,4-diamine]
- EC50 [1]: 5 to 30 µM
- Ki (Son of Sevenless (SOS)): > 5 µM

SMILES: CC[C@@H](Nc1nc(Nc2ccc(F)c(Cl)c2)nc2ccccc12)C1CCCC1 [Example 44, (R)—N^2-(3-chloro-4-fluorophenyl)-N^4-(1-cyclopentylpropyl)quinazoline-2,4-diamine]
- EC50 [1]: > 30 µM

SMILES: Oc1cccc(Nc2nc(NCc3cccs3)c3ccccc3n2)c1 [Example 13, 3-((4-((thiophen-2-ylmethyl)amino)quinazolin-2-yl)amino)phenol]
- EC50 [1]: 5 to 30 µM
